Earlier results in US9107837B2, “Sustained release formulation of naltrexone” (Orexigen Therapeutics, Inc., priority 2006, dated 2015).

Conditions: open label, approximately 570 individuals with alcoholism

O=C1CC[C@@]2(O)[C@H]3Cc4ccc(O)c5c4[C@@]2(CCN3CC2CC2)[C@H]1O5 [naltrexone, 17-(cyclopropylmethyl)-4,5α-epoxy-3,14-dihydroxymorphinan-6-one]
New-onset adverse reaction: anxiety: 2%
New-onset adverse reaction: dizziness: 4%
New-onset adverse reaction: fatigue: 4%
New-onset adverse reaction: headache: 7%
New-onset adverse reaction: insomnia: 3%
New-onset adverse reaction: nausea: 10%
New-onset adverse reaction: nervousness: 4%
New-onset adverse reaction: somnolence: 2%
New-onset adverse reaction: vomiting: 3%
